This is an account of results in patent US8859584B2, “TRPV1 antagonists” (AbbVie Inc., priority 2011, dated 2014).

One may read the IC50 as the point on the concentration scale where inhibition reaches its midpoint.

Like-named read-outs stand apart in the source and are kept apart here.

Assay [1] has as its target T1, human TRPV1 (Homo sapiens, UniProt Q8NER1).
T1 construct: expressed in transfected cells
Briefly: Acid Activation Assay (pH 5.0, FLIPR intracellular Ca2+, recombinant HEK293 cells). Format: cell-based. As to conditions: percentage of maximal pH 5.0-induced response remaining; HEK293 hTRPV1; max concentration 37.5 μM. A digest of the protocol:
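HEK293 cells stably expressing recombinant hTRPV1 were loaded with calcium dye for 90-120 min at 25° C and pre-treated with compound for 3 min before a pH 5.0 (DPBS/MES) challenge. Peak FLIPR fluorescence over baseline is given as percentage of the maximal pH 5.0-induced response.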

Assay [2] has as its target T1, human TRPV1. The experiment in a line: Capsaicin Activation Assay (FLIPR intracellular Ca2+, recombinant HEK293 cells). Format: cell-based.
The mark [3] stands for this setting: recombinant HEK293 cells expressing hTRPV1, 50 nM capsaicin, read-out: human TRPV1 capsaicin IC50.

T1 sequence (Q8NER1 whole entry): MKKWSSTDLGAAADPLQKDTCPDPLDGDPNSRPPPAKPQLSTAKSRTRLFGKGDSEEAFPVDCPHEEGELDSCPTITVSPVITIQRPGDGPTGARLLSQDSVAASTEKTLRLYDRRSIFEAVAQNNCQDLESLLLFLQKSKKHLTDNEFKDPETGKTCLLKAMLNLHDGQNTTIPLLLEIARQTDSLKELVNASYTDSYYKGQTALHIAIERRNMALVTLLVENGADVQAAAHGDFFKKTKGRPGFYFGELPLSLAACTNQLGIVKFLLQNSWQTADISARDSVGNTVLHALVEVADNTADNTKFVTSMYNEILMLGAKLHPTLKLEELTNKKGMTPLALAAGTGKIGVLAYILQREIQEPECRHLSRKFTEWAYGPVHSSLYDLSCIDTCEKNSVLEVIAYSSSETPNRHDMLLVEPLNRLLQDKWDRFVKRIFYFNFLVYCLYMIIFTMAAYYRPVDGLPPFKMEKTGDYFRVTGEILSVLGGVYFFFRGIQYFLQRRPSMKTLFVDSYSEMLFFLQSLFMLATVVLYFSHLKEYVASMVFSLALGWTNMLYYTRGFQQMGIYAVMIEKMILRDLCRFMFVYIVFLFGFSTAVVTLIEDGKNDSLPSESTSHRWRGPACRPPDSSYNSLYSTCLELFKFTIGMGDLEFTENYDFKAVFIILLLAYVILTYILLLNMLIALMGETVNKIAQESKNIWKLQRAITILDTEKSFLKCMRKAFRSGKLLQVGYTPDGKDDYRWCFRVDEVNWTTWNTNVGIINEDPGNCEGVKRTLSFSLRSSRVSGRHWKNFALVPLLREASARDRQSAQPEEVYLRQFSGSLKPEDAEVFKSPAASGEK

`CN1CC[C@@H](NC(=O)Nc2ccc(F)c3c2C[C@H](O)C3)c2ccc(C(F)(F)F)cc21` [Example 148, 1-[(2S)-7-fluoro-2-hydroxy-2,3-dihydro-1H-inden-4-yl]-3-[(4R)-1-methyl-7-(trifluoromethyl)-1,2,3,4-tetrahydroquinolin-4-yl]urea]: the “human TRPV1 H+ (max % remain)” value in assay [1] was 21%. In assay [2] (setting [3]), the half-inhibitory concentration (IC50) came to 3100 nM.
With `C[C@]1(CF)C[C@@H](NC(=O)Nc2c(F)ccc3c2C[C@@H](O)C3)c2ccc(Cl)cc2O1` [Example 100, 1-[(2R,4R)-7-chloro-2-(fluoromethyl)-2-methyl-3,4-dihydro-2H-chromen-4-yl]-3-[(2S)-5-fluoro-2-hydroxy-2,3-dihydro-1H-inden-4-yl]urea], in assay [1], the “human TRPV1 H+ (max % remain)” value was determined as 30%. In addition, in assay [2] (setting [3]), the concentration for half-maximal inhibition (IC50) turned out to be 33 nM.
As for `O=C(Nc1cccc2c1C[C@H](O)C2)N[C@H]1CC2(CCC2)Oc2ccc(F)cc21` [Example 101, 1-[(4S)-6-fluoro-3,4-dihydrospiro[chromene-2,1′-cyclobutan]-4-yl]-3-[(2R)-2-hydroxy-2,3-dihydro-1H-inden-4-yl]urea], the “human TRPV1 H+ (max % remain)” value in assay [1] turned out to be 90%. Besides, the IC50 in assay [2] (setting [3]) is 1200 nM.
For `O=C(Nc1cccc2c1C[C@H](O)C2)N[C@@H]1CCOc2cc(F)ccc21` [Example 65, 1-[(4R)-7-fluoro-3,4-dihydro-2H-chromen-4-yl]-3-[(2R)-2-hydroxy-2,3-dihydro-1H-inden-4-yl]urea], in that order: 73% and 270 nM.
In the same order, the values of `O=C(Nc1cccc2c1CC(O)C2)NC1c2ccccc2OCC1Cc1ccccc1` (stereo not shown) [Example 111, 1-(3-benzyl-3,4-dihydro-2H-chromen-4-yl)-3-(2-hydroxy-2,3-dihydro-1H-inden-4-yl)urea] are 94% and 2200 nM.
For `O=C(Nc1cccc2c1CC(O)C2)NC1c2ccccc2OCC1Cc1ccc(Cl)c(Cl)c1` (stereo not shown) [Example 112, 1-[3-(3,4-dichlorobenzyl)-3,4-dihydro-2H-chromen-4-yl]-3-(2-hydroxy-2,3-dihydro-1H-inden-4-yl)urea], in that order: 77% and 980 nM.
As for “1-(5-chloro-2,3-dihydro-1H-inden-1-yl)-3-(7-fluoro-2-hydroxy-2,3-dihydro-1H-inden-4-yl)urea [Example 174]”, the “human TRPV1 H+ (max % remain)” value in assay [1] worked out at 29%. Moreover, the IC50 in assay [2] (setting [3]) came to 420 nM.
Regarding `O=C(Nc1cccc2c1CC(O)C2)NC1c2ccccc2OCC1c1ccccc1` (stereo not shown) [Example 108, 1-(2-hydroxy-2,3-dihydro-1H-inden-4-yl)-3-(3-phenyl-3,4-dihydro-2H-chromen-4-yl)urea], the “human TRPV1 H+ (max % remain)” value in assay [1] turned out to be 97%. In assay [2] (setting [3]), the half-inhibitory concentration (IC50) is 8000 nM.
Turning to `O=C(Nc1ccc(F)c2c1C[C@@H](O)C2)N[C@@H]1CC(CF)(CF)Oc2cc(Cl)ccc21` [Example 133, 1-[(4R)-7-chloro-2,2-bis(fluoromethyl)-3,4-dihydro-2H-chromen-4-yl]-3-[(2R)-7-fluoro-2-hydroxy-2,3-dihydro-1H-inden-4-yl]urea], in assay [1], the “human TRPV1 H+ (max % remain)” value amounted to 36%. The half-inhibitory concentration (IC50) in assay [2] amounted to 220 nM.
For the molecule `CC1(C)C[C@@H](NC(=O)Nc2ccc(F)c3c2C[C@@H](O)C3)c2ccc(F)c(F)c2O1` [Example 171, 1-[(4R)-7,8-difluoro-2,2-dimethyl-3,4-dihydro-2H-chromen-4-yl]-3-[(2R)-7-fluoro-2-hydroxy-2,3-dihydro-1H-inden-4-yl]urea], in assay [1], the “human TRPV1 H+ (max % remain)” value is 47%. Further, in assay [2] (setting [3]), the IC50 is 400 nM.
In the same order, the values of `CC1(C)C[C@@H](NC(=O)Nc2ccc(F)c3c2C[C@@H](O)C3)c2ccc(Cl)cc2O1` [Example 167, 1-[(4R)-7-chloro-2,2-dimethyl-3,4-dihydro-2H-chromen-4-yl]-3-[(2R)-7-fluoro-2-hydroxy-2,3-dihydro-1H-inden-4-yl]urea] are 51% and 200 nM.
For `CC1(C)C[C@@H](NC(=O)Nc2ccc(F)c3c2C[C@H](O)C3)c2ccc(F)c(F)c2O1` [Example 153, 1-[(4R)-7,8-difluoro-2,2-dimethyl-3,4-dihydro-2H-chromen-4-yl]-3-[(2S)-7-fluoro-2-hydroxy-2,3-dihydro-1H-inden-4-yl]urea], in that order: 2% and 760 nM.
For `CC1(C)C[C@@H](NC(=O)Nc2ccc(F)c3c2C[C@H](O)C3)c2cc(F)ccc2O1` [Example 146, 1-[(4R)-6-fluoro-2,2-dimethyl-3,4-dihydro-2H-chromen-4-yl]-3-[(2S)-7-fluoro-2-hydroxy-2,3-dihydro-1H-inden-4-yl]urea], the “human TRPV1 H+ (max % remain)” value in assay [1] came out at 7%. Also, the IC50 in assay [2] (setting [3]) came out at 2800 nM.
`O=C(Nc1cccc2c1C[C@@H](O)C2)N[C@H]1CCOc2cc(OC(F)(F)F)ccc21` [Example 94, 1-[(2S)-2-hydroxy-2,3-dihydro-1H-inden-4-yl]-3-[(4S)-7-(trifluoromethoxy)-3,4-dihydro-2H-chromen-4-yl]urea]: in assay [1], the “human TRPV1 H+ (max % remain)” value is on record as 47%. Also, in assay [2] (setting [3]), the IC50 stood at 5900 nM.
In the same order, the values of `C[C@]1(C(F)F)C[C@@H](NC(=O)Nc2cccc3c2C[C@H](O)C3)c2ccccc2O1` [Example 127, 1-[(2R,4R)-2-(difluoromethyl)-2-methyl-3,4-dihydro-2H-chromen-4-yl]-3-[(2R)-2-hydroxy-2,3-dihydro-1H-inden-4-yl]urea] are 62% and 260 nM.
Regarding `O=C(Nc1ccc(F)c2c1C[C@@H](O)C2)N[C@@H]1CCOc2cc(OC(F)(F)F)ccc21` [Example 168, 1-[(2R)-7-fluoro-2-hydroxy-2,3-dihydro-1H-inden-4-yl]-3-[(4R)-7-(trifluoromethoxy)-3,4-dihydro-2H-chromen-4-yl]urea], the “human TRPV1 H+ (max % remain)” value in assay [1] turned out to be 70%. In assay [2] (setting [3]), the IC50 was determined as 850 nM.
In the same order, the values of `O=C(Nc1cccc2c1C[C@H](O)C2)N[C@@H]1CC(CF)(CF)Oc2cc(C(F)F)ccc21` [Example 130, 1-[(4R)-7-(difluoromethyl)-2,2-bis(fluoromethyl)-3,4-dihydro-2H-chromen-4-yl]-3-[(2R)-2-hydroxy-2,3-dihydro-1H-inden-4-yl]urea] are 85% and 34000 nM.
For `CC1(C)C[C@@H](NC(=O)Nc2cccc3c2C[C@@H](O)C3)c2ccc(C(F)(F)F)cc2O1` [Example 77, 1-[(4R)-2,2-dimethyl-7-(trifluoromethyl)-3,4-dihydro-2H-chromen-4-yl]-3-[(2S)-2-hydroxy-2,3-dihydro-1H-inden-4-yl]urea], in that order: 1% and 12 nM.
As for `CC(C)(C)c1ccc(Nc2ncnc3cc(-c4ncccc4C(F)(F)F)ccc23)cc1` [B, reference compound], the “human TRPV1 H+ (max % remain)” value in assay [1] came to 1%. Further, the IC50 in assay [2] (setting [3]) worked out at 55 nM.
For `O=C(Nc1c(F)ccc2c1C[C@H](O)C2)N[C@@H]1CC(CF)(CF)Oc2cc(C(F)(F)F)ccc21` [Example 96, 1-[(4R)-2,2-bis(fluoromethyl)-7-(trifluoromethyl)-3,4-dihydro-2H-chromen-4-yl]-3-[(2R)-5-fluoro-2-hydroxy-2,3-dihydro-1H-inden-4-yl]urea], in that order: 2% and 62 nM.
